The values below come from patent US7022697B2, “4-(Oxadiazol-3-yl)-1,4-diazabicyclo[3.2.2]-nonane derivatives, preparation and therapeutic use thereof” (Sanofi-aventis, priority 2001, dated 2006).

Structures are written as SMILES. Counter-ions that a name gives are not always drawn.

As usually defined, the melting point is the temperature, or range, at which the solid turns liquid. Take `c1cc(-c2nc(N3CCN4CCC3CC4)no2)ccn1` (as salt: HBr): the melting point was in the range of 269 to 272 °C. `C1CNC(c2nc(N3CCN4CCC3CC4)no2)CN1` (stereo not drawn) (as salt: HBr) registered a melting point of 247 to 248 °C.

Turning to `c1ccc2c(-c3nc(N4CCN5CCC4CC5)no3)cccc2c1` (as salt: HBr), the melting point was 256 to 258 °C.

In turn, `c1coc(-c2nc(N3CCN4CCC3CC4)no2)c1` (as salt: HBr) registered a melting point of 249 to 251 °C. To `c1ccc2sc(-c3nc(N4CCN5CCC4CC5)no3)cc2c1` (as salt: HBr) belongs 258 to 260 °C; to `c1cncc(-c2nc(N3CCN4CCC3CC4)no2)c1` (as salt: HBr), 260 to 264 °C.
